Tests used:
[1] = test system: Normal human neonatal dermal fibroblasts; assay: Expression of primary cilia in skin cells (immunofluorescence staining with ARL13B and acetylated tubulin antibodies, confocal microscope); format: cell-based; settings: 48 hours, vs control group (FIG. 1)
Method: Normal human neonatal dermal fibroblasts were plated in a Lab-Tex™ 2-well glass chamber slide (Thermo Scientific, Waltham, Mass., USA) with 0.5×10^5 cells per well. 24 hours later, the cells were treated with a test substance (1.5 mL of 0.2 μM cytochalasin D, or 1.5 mL of 2 μM SAG). 48 hours, the cells were immobilized and primary cilia were stained.
The primary cilia were stained with ARL13B (Proteintech) and a-acetylated tubulin (Sigma-Aldrich) antibodies. The cells were incubated overnight at 4° C. with ARL13B antibody diluted to 1/500 based on weight and a-acetylated tubulin antibody diluted to 1/1000 based on weight in a PBS buffer supplemented with 0.1% Triton™ X-100 and 5% normal goat serum. Then, the cells were treated at room temperature for 2 hours with Alexa Fluor 594 goat anti-mouse IgG and 488 goat anti-rabbit IgG (Invitrogen) as secondary antibodies. The nuclei were stained with DAPI and observed under a confocal microscope. The experiment was repeated at least twice for independent test groups.

[2] = test system: normal human dermal fibroblasts; assay: Procollagen I secreted to the medium of fibroblasts, measured by western blotting; format: cell-based; settings: 48 hours, vs control group (FIG. 2)
Method: It was investigated whether the increase in primary cilia leads to increased secretion of procollagen to the medium.
Specifically, normal human dermal fibroblasts were cultured in DMEM supplemented with 10% FBS (fetal bovine serum), 100 mg/L streptomycin and 100,000 U/L penicillin. The cultured fibroblasts seeded onto a 6-well plate with 1×10^5 cells per well and 1.5 mL of a medium containing 0.2 μM cytochalasin D or 2 pM SAG as a test substance was added 24 hours later. This leads to increased expression of primary cilia as in Test Example 1. 48 hours after the treatment with the test substance, the medium was collected and the amount of procollagen I in the medium was measured by western blotting. The procollagen I antibody was purchased from Developmental Studies Hybridoma Bank and diluted in a PBS buffer containing 0.1% Trito™ X-100 and 5% normal goat serum to 1/10000 based on weight. As a control group (loading control), electrophoresed polyacrylamide gel was stained with 0.05% Coomassie blue and then observed. The experiment was repeated at least twice for independent test groups.

Row | SMILES | primary cilia of fibroblasts ([1]; 2 μM SAG) | amount of procollagen in fibroblasts (procollagen I in the medium) ([2]; 2 pM SAG (so in the source)) | primary cilia of fibroblasts ([1]; 0.2 μM cytochalasin D) | amount of procollagen in fibroblasts (procollagen I in the medium) ([2]; 0.2 μM cytochalasin D)
1 | CN[C@H]1CC[C@H](N(Cc2cccc(-c3ccncc3)c2)C(=O)c2sc3ccccc3c2Cl)CC1 [SAG, 3-chloro-N-[trans-4-(methylamino)cyclohexyl]-N-[[3-(4-pyridinyl)phenyl]methyl]benzo[b]thiophene-2-carboxamide] | increased | increased | – | –
2 | C=C1C(O)[C@@H]2/C=C/C[C@H](C)C(=O)[C@](C)(O)/C=C/[C@H](OC(C)=O)[C@]23C(=O)N[C@@H](Cc2ccccc2)[C@@H]3[C@@H]1C (stereo partly shown) [cytochalasin D] | – | – | increased | increased
